Where no end group is shown, it is not given here. A value given as a limit tells only on which side of the number the result lay.

The test system of assay [1] is adenylate cyclase. The following applies: relative to glucagon = 100; liver membranes. The procedure:
Adenylate Cyclase Assay. The assay on liver membranes was performed according to Salomon et al. [Salomon, Y., Londos, C. & Rodbell, M. Anal. Biochem. 58, 541,548 (1974)]. The released cAMP was mixed with [8-^3 H]cAMP measured with a high affinity cAMP binding protein.
The purpose of the adenylate cyclase assays is to measure the ability of the compound under test to stimulate the activity of adenylate cyclase. The assays are used to measure relative potency, maximum activity and inhibition index.
The inhibition index, defined above, was determined from adenylate cyclase assays by two different protocols.
2. […] Increasing amounts of antagonist were then added and the concentration that reduced the response to 45% of maximum was determined.

A further assay has as its system glucagon receptor. The following applies: prior-art antagonist; cited from earlier work.
For the next assay, the system named is hepatocyte membrane. Particulars: prior-art antagonist; cited from earlier work.
Assay [2] relates to adenylate cyclase. Particulars: prior-art antagonist; cited from earlier work.

For the molecule `CSCC[C@H](NC(=O)[C@H](CC(C)C)NC(=O)[C@H](Cc1c[nH]c2ccccc12)NC(=O)[C@H](CCC(N)=O)NC(=O)[C@@H](NC(=O)[C@H](Cc1ccccc1)NC(=O)[C@H](CC(=O)O)NC(=O)[C@H](CCC(N)=O)NC(=O)[C@H](C)NC(=O)[C@H](CCCNC(=N)N)NC(=O)[C@H](CCCNC(=N)N)NC(=O)[C@H](CO)NC(=O)[C@H](CC(=O)O)NC(=O)[C@H](CC(C)C)NC(=O)[C@H](Cc1ccc(O)cc1)NC(=O)[C@H](CCCCN)NC(=O)[C@H](CO)NC(=O)[C@H](Cc1ccc(O)cc1)NC(=O)[C@H](CCC(=O)O)NC(=O)[C@H](CO)NC(=O)[C@@H](NC(=O)[C@H](Cc1ccccc1)NC(=O)[C@@H](NC(=O)CNC(=O)[C@H](CCC(N)=O)NC(=O)[C@@H](N)CO)[C@@H](C)O)[C@@H](C)O)C(C)C)C(=O)N[C@@H](CC(N)=O)C(=O)N[C@H](C(N)=O)[C@@H](C)O` [Compound 2, des-His^1-[Glu^9] glucagon amide], in the assay with adenylate cyclase [1], the “ADENYL CYCLASE ASSAYS Rel. Potency” value is reported as less than 0.0001.
For “SQGTFTSEYSKYLDSKKAQEFVQWLMNT [Compound 3, des-His^1-[Glu^9 -Lys^17,18 Glu^21] glucagon]”, the “ADENYL CYCLASE ASSAYS Rel. Potency” value in the assay on adenylate cyclase [1] is recorded as 0.0001.
As for `CSCC[C@H](NC(=O)[C@H](CC(C)C)NC(=O)[C@H](Cc1c[nH]c2ccccc12)NC(=O)[C@H](CCC(N)=O)NC(=O)[C@@H](NC(=O)[C@H](Cc1ccccc1)NC(=O)[C@H](CC(=O)O)NC(=O)[C@H](CCC(N)=O)NC(=O)[C@H](C)NC(=O)[C@H](CCCNC(=N)N)NC(=O)[C@H](CCCNC(=N)N)NC(=O)[C@H](CO)NC(=O)[C@H](CC(=O)O)NC(=O)[C@H](CC(C)C)NC(=O)[C@H](Cc1ccc(O)cc1)NC(=O)[C@H](CCCCN)NC(=O)[C@H](CO)NC(=O)[C@H](Cc1ccc(O)cc1)NC(=O)[C@H](CCC(=O)O)NC(=O)[C@H](CO)NC(=O)[C@@H](NC(=O)[C@H](Cc1ccccc1)NC(=O)[C@@H](NC(=O)CNC(=O)[C@H](CCC(N)=O)NC(=O)[C@@H](N)CO)[C@@H](C)O)[C@@H](C)O)C(C)C)C(=O)N[C@@H](CC(N)=O)C(=O)N[C@H](C(=O)O)[C@@H](C)O` [Compound 1, des-His^1-[Glu^9] glucagon], the “ADENYL CYCLASE ASSAYS Rel. Potency” value with adenylate cyclase [1] is less than 0.0008.
Turning to “Nα- trinitrophenyl [12-homoarginine] glucagon”, the “binding to the glucagon receptor (in words)” value with glucagon receptor is recorded as “does bind to the glucagon receptor”. For the same molecule, the “activation of another binding system leading to inositol triphosphate and calcium ions (in words)” value with hepatocyte membrane was “activates another binding system”. In the assay on adenylate cyclase [2], the “activation of adenylate cyclase (in words)” value is recorded as “without significant activation”.

The record behind these values is patent US4879273A (The Rockefeller University, priority 1987, dated 1989).
